Experimental data as given in US8148391B2 (Cephalon, Inc., priority 2006, dated 2012).

target: T1, baculovirus-expressed ALK (Homo sapiens, UniProt Q9UM73); test: ALK Kinase Assay (ELISA-type, time-resolved fluorescence); type: biochemical; settings: 1 μM ATP (Km level), 30 ng/ml ALK, 37° C., 15 minutes; read-out: ALK Activity (ALK kinase inhibition, IC50 class)
T1 construct: host or cells: baculovirus expression system
Procedure: (§1) Briefly, each 96-well plate was coated with 100 μL/well of 10 μg/mL substrate (phospholipase C-γ) in Tris-buffered saline (TBS). […] The reaction was initiated by adding enzyme (30 ng/ml ALK) and was allowed to proceed at 37° C. for 15 minutes. Detection of the phosphorylated product was performed by adding 100 μl/well of Eu-N1 labeled PT66 antibody (Perkin Elmer # AD0041).
(§2) Data analysis was performed using ActivityBase (IDBS, Guilford, UK). IC50 values were calculated by plotting percent inhibition versus log10 of the concentration of compound and fitting to the nonlinear regression sigmoidal dose-response (variable slope) equation in XLFit (IDBS, Guilford, UK).

T1 sequence (Q9UM73 19-1620): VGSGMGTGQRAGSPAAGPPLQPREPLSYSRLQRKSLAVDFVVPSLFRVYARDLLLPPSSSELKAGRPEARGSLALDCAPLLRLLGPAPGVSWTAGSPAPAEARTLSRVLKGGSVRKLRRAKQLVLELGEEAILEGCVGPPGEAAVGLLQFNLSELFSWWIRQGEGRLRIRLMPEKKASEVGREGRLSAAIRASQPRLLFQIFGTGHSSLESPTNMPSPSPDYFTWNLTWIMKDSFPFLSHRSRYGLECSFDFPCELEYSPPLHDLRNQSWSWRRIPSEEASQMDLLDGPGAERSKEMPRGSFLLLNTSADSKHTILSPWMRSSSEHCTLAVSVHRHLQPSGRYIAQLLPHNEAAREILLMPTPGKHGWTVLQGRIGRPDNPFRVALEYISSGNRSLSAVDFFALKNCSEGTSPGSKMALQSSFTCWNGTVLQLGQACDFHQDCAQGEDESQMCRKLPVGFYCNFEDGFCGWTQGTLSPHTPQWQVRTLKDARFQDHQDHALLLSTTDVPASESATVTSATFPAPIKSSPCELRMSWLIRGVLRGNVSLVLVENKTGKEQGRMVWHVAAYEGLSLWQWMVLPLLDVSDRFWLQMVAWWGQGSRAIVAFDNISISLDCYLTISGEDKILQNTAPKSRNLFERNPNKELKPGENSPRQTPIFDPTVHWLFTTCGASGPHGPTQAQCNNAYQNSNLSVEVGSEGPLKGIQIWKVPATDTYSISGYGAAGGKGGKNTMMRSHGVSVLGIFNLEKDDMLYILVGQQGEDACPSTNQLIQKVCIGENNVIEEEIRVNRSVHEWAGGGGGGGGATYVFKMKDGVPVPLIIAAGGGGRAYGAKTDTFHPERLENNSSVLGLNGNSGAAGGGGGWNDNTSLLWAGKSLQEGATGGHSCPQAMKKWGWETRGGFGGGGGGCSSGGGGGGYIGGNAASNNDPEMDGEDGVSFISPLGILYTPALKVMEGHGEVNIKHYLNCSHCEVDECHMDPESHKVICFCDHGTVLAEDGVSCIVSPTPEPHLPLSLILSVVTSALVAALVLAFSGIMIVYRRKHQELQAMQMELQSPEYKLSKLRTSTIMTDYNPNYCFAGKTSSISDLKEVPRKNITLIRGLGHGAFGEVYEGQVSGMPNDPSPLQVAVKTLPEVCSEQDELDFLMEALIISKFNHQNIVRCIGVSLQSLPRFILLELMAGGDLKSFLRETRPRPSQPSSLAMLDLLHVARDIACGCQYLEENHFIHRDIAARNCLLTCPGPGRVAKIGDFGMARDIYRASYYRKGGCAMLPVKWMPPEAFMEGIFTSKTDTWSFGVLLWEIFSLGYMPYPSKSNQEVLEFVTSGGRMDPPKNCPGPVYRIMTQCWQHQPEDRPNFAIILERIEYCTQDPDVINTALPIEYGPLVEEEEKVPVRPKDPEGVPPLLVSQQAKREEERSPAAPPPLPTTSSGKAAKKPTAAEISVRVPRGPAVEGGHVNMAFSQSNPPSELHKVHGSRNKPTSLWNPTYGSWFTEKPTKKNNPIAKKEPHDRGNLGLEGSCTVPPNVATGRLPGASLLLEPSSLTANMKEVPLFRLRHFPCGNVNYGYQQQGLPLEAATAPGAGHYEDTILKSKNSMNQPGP

IC50 [nM]	SMILES
100 to 1000	CNC(=O)c1cccc(F)c1Nc1nc(Nc2ccc3c(c2)NC(=O)C(NC(=O)COC)CC3(C)C)ncc1Cl (centres unmarked) [Example 1292, 2-{5-Chloro-2-[3-(2-methoxy-acetylamino)-5,5-dimethyl-2-oxo-2,3,4,5-tetrahydro-1H-1-benzazepin-8-ylamino]-pyrimidin-4-ylamino}-3-fluoro-N-methyl-benzamide]
< 100	C#CCNC(=O)c1ccccc1Nc1nc(Nc2ccc3c(c2)CCCC(=O)N3C)ncc1Cl [Example 1388, 2-[5-Chloro-2-(1-methyl-2-oxo-2,3,4,5-tetrahydro-1H-benzo[b]azepin-7-ylamino)-pyrimidin-4-ylamino]-N-prop-2-ynyl-benzamide]
100 to 1000	CNC(=O)c1cccc(F)c1Nc1nc(Nc2ccc3c(c2)NC(=O)CCC3)ncc1Cl [Example 1375, 2-[5-Chloro-2-(2-oxo-2,3,4,5-tetrahydro-1H-benzo[b]azepin-8-ylamino)-pyrimidin-4-ylamino]-3-fluoro-N-methyl-benzamide]
100 to 1000	CNC(=O)c1cccc(F)c1Nc1nc(Nc2ccc3c(c2)OCCCN3C(=O)OC(C)C)ncc1Cl [Example 1432, 3-[5-Chloro-4-(2-fluoro-6-methylcarbamoyl-phenylamino)-pyrimidin-2-ylamino]-7,8-dihydro-6H-5-oxa-9-aza-benzocycloheptene-9-carboxylic acid isopropyl ester]
100 to 1000	CCOC(=O)N1CCCOc2cc(Nc3ncc(Cl)c(Nc4c(F)cccc4C(=O)NC)n3)ccc21 [Example 1417, 3-[5-Chloro-4-(2-fluoro-6-methylcarbamoyl-phenylamino)-pyrimidin-2-ylamino]-7,8-dihydro-6H-5-oxa-9-aza-benzocycloheptene-9-carboxylic acid ethyl ester]
100 to 1000	CNC(=O)c1cccc(F)c1Nc1nc(Nc2ccc3c(c2)OCCCN3C(=O)OCCCN(C)C)ncc1Cl [Example 1426, 3-[5-Chloro-4-(2-fluoro-6-methylcarbamoyl-phenylamino)-pyrimidin-2-ylamino]-7,8-dihydro-6H-5-oxa-9-aza-benzocycloheptene-9-carboxylic acid 3-dimethylamino-propyl ester]
< 100	C#CCN(C)C(=O)c1ccccc1Nc1nc(Nc2ccc3c(c2)CCCC(=O)N3C)ncc1Cl [Example 1390, [5-Chloro-2-(1-methyl-2-oxo-2,3,4,5-tetrahydro-1H-benzo[b]azepin-7-ylamino)-pyrimidin-4-ylamino]-N-methyl-N-prop-2-ynyl-benzamide]
100 to 1000	CNC(=O)c1cccc(F)c1Nc1nc(Nc2ccc3c(c2)OCCCN3C(=O)OC)ncc1Cl [Example 1431, 3-[5-Chloro-4-(2-fluoro-6-methylcarbamoyl-phenylamino)-pyrimidin-2-ylamino]-7,8-dihydro-6H-5-oxa-9-aza-benzocycloheptene-9-carboxylic acid methyl ester]

same assay, conditions: ALK kinase inhibition, 1 μM ATP (Km level); read-out: ALK Activity

IC50 [nM]	SMILES
< 100	CNC(=O)c1ccccc1Nc1nc(Nc2ccc3c(c2)C(C)(C)CCC(=O)N3)ncc1Cl [Example 381, 2-[5-Chloro-2-(5,5-dimethyl-2-oxo-2,3,4,5-tetrahydro-1H-benzo[b]azepin-7-ylamino)-pyrimidin-4-ylamino]-N-methyl-benzamide]
100 to 1000	CNC(=O)c1cccc(Cl)c1Nc1nc(Nc2ccc3c(c2)C(C)(C)CCC(=O)N3)ncc1Cl [Example 382, 3-Chloro-2-[5-chloro-2-(5,5-dimethyl-2-oxo-2,3,4,5-tetrahydro-1H-benzo[b]azepin-7-ylamino)-pyrimidin-4-ylamino]-N-methyl-benzamide]
< 100	CN1C(=O)CCCc2cc(Nc3ncc(Cl)c(Nc4ccccc4C(N)=O)n3)ccc21 [Example 7, 2-[5-Chloro-2-(1-methyl-2-oxo-2,3,4,5-tetrahydro-1H-benzo[b]azepin-7-ylamino)-pyrimidin-4-ylamino]-benzamide]
100 to 1000	CNC(=O)c1cccc(Cl)c1Nc1nc(Nc2ccc3c(c2)CCN(CCOC)CC3)ncc1Cl [Example 312, 3-Chloro-2-{5-chloro-2-[3-(2-methoxy-ethyl)-2,3,4,5-tetrahydro-1H-benzo[d]azepin-7-ylamino]-pyrimidine-4-ylamino}-N-methyl-benzamide]
< 100	CNC(=O)c1cccc(F)c1Nc1nc(Nc2ccc3c(c2)CCN(CCOC)CC3)ncc1Cl [Example 311, 2-{5-Chloro-2-[3-(2-methoxy-ethyl)-2,3,4,5-tetrahydro-1H-benzo[d]azepin-7-ylamino]-pyrimidine-4-ylamino}-3-fluoro-N-methyl-benzamide]

same assay, conditions: ALK kinase inhibition, 1 μM ATP; read-out: ALK Activity

IC50 [nM]	SMILES
100 to 1000	CNC(=O)c1cccc(F)c1Nc1nc(Nc2ccc3c(c2)OCCCN3C(=O)COC)ncc1Cl [Example 1726, 2-{5-Chloro-2-[9-(2-methoxy-acetyl)-6,7,8,9-tetrahydro-5-oxa-9-aza-benzocyclohepten-3-ylamino]-pyrimidin-4-ylamino}-3-fluoro-N-methyl-benzamide]
100 to 1000	CNC(=O)c1cccc(F)c1Nc1nc(Nc2ccc3c(c2)OCCCN3C(C)=O)ncc1Cl [Example 1724, 2-[2-(9-Acetyl-6,7,8,9-tetrahydro-5-oxa-9-aza-benzocyclohepten-3-ylamino)-5-chloro-pyrimidin-4-ylamino]-3-fluoro-N-methyl-benzamide]
< 100	CCN1C(=O)CCC(C)(C)c2ccc(Nc3ncc(Cl)c(Nc4c(F)cccc4C(=O)NC)n3)cc21 [Example 1576, 2-[5-Chloro-2-(1-ethyl-5,5-dimethyl-2-oxo-2,3,4,5-tetrahydro-1H-benzo[b]azepin-8-ylamino)-pyrimidin-4-ylamino]-3-fluoro-N-methyl-benzamide]
100 to 1000	CNC(=O)c1cccc(F)c1Nc1nc(Nc2ccc3c(c2)NC(=O)CCC3(C)C)ncc1Cl [Example 1574, 2-[5-Chloro-2-(5,5-dimethyl-2-oxo-2,3,4,5-tetrahydro-1H-benzo[b]azepin-8-ylamino)-pyrimidin-4-ylamino]-3-fluoro-N-methyl-benzamide]
< 100	CNC(=O)c1cccc(F)c1Nc1nc(Nc2ccc3c(c2)N(CC(C)C)C(=O)CCC3(C)C)ncc1Cl [Example 1592, 2-[5-Chloro-2-(1-isobutyl-5,5-dimethyl-2-oxo-2,3,4,5-tetrahydro-1H-benzo[b]azepin-8-ylamino)-pyrimidin-4-ylamino]-3-fluoro-N-methyl-benzamide]

target: T2, c-Met (cytoplasmic domain) (Homo sapiens, UniProt P08581); test: c-Met Kinase Assay (same methods as for ALK, with modifications); type: biochemical; settings: 1 μM ATP (Km level), 10 ng/mL c-Met; read-out: cMet Activity (c-Met kinase inhibition, IC50 class)
T2 construct: 10 ng/mL c-Met (cytoplasmic domain, Invitrogen Corporation #PV3143); purchased Invitrogen Corporation PV3143
T2 sequence (P08581 956-1390 limits assumed): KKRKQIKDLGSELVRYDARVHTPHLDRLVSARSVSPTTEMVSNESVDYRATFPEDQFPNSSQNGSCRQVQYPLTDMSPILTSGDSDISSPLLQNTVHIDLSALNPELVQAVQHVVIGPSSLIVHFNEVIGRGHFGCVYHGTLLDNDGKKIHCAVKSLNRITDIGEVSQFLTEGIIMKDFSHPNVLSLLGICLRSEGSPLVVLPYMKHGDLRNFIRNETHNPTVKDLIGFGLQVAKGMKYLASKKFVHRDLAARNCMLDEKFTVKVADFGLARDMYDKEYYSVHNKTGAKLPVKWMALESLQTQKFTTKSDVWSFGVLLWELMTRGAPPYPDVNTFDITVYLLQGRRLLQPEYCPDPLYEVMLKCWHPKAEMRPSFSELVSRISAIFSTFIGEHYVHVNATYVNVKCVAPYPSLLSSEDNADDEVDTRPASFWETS
Procedure: as §1, §2
Reactions were initiated with 10 ng/mL c-Met (cytoplasmic domain, Invitrogen Corporation #PV3143).

IC50 [µM]	SMILES
> 10	COc1cc2c(cc1Nc1ncc(Cl)c(Nc3ccc(N4CCOCC4)cc3OC)n1)CCN(CCS(C)(=O)=O)CC2 [Example 1120, 5-Chloro-N*2*-[3-(2-methanesulfonyl-ethyl)-8-methoxy-2,3,4,5-tetrahydro-1H-benzo[d]azepin-7-yl]-N*4*-(2-methoxy-4-morpholin-4-yl-phenyl)-pyrimidine-2,4-diamine]
> 10	CNC(=O)CN1CCc2cc(Nc3ncc(Cl)c(Nc4ccc(N5CCOCC5)cc4OC)n3)c(OC)cc2CC1 [Example 1113, 2-{7-[5-Chloro-4-(2-methoxy-4-morpholin-4-yl-phenylamino)-pyrimidin-2-ylamino]-8-methoxy-1,2,4,5-tetrahydro-benzo[d]azepin-3-yl}-N-methyl-acetamide]
> 10	COc1cc2c(cc1Nc1ncc(Cl)c(Nc3ccc(C#N)cc3OC)n1)CCN(CC(=O)N(C)C)CC2 [Example 1163, 2-{7-[5-Chloro-4-(4-cyano-2-methoxy-phenylamino)-pyrimidin-2-ylamino]-8-methoxy-1,2,4,5-tetrahydro-benzo[d]azepin-3-yl}-N,N-dimethyl-acetamide]
> 10	COc1cc2c(cc1Nc1ncc(Cl)c(Nc3ccc(N4CCOCC4)cc3)n1)CCN(CC(=O)N(C)C)CC2 [Example 1150, 2-{7-[5-Chloro-4-(4-morpholin-4-yl-phenylamino)-pyrimidin-2-ylamino]-8-methoxy-1,2,4,5-tetrahydro-benzo[d]azepin-3-yl}-N,N-dimethyl-acetamide]

same assay, conditions: 1 μM ATP (Km level); read-out: cMet Activity (c-Met Kinase Inhibition, IC50)

IC50 [µM]	SMILES
> 10	COc1ccc(Nc2nc(Nc3cc4c(cc3OC)CCN(CC(=O)N(C)C)CC4)ncc2Cl)c(OC)c1 [Example 812, 2-{7-[5-Chloro-4-(2,4-dimethoxy-phenylamino)-pyrimidin-2-ylamino]-8-methoxy-1,2,4,5-tetrahydro-benzo[d]azepin-3-yl}-N,N-dimethyl-acetamide]

same assay, conditions: c-Met kinase inhibition, 1 μM ATP (Km level); read-out: cMet Activity

IC50 [µM]	SMILES
> 10	COCCN1CCc2cc(Nc3ncc(Cl)c(Nc4ccc(N5CCOCC5)cc4OC)n3)c(OC)cc2CC1 [Example 113, 5-Chloro-N*2*-[8-methoxy-3-(2-methoxy-ethyl)-2,3,4,5-tetrahydro-1H-benzo[d]azepin-7-yl]-N*4*-(2-methoxy-4-morpholin-4-yl-phenyl)-pyrimidine-2,4-diamine]
> 10	CCN1C(=O)CCCc2c1ccc(Nc1ncc(Cl)c(Nc3ccc(N4CCOCC4)cc3OC)n1)c2OC [Example 119, 7-[5-Chloro-4-(2-methoxy-4-morpholin-4-yl-phenylamino)-pyrimidin-2-ylamino]-1-ethyl-6-methoxy-1,3,4,5-tetrahydro-benzo[b]azepin-2-one]

same assay, conditions: cMet Activity, c-Met kinase inhibition, 1 μM ATP (Km level)

IC50 [µM]	SMILES
> 10	COc1cc2c(cc1Nc1ncc(Cl)c(Nc3ccc(N4CCOCC4)cc3OC)n1)CCN(CC(=O)N(C)C)CC2 [Example 261, 2-{7-[5-Chloro-4-(2-methoxy-4-morpholin-4-yl-phenylamino)-pyrimidin-2-ylamino]-8-methoxy-1,2,4,5-tetrahydro-benzo[d]azepin-3-yl}-N,N-dimethyl-acetamide]
